In PMC5578959, “Selective LRRK2 kinase inhibition reduces phosphorylation of endogenous Rab10 and Rab12 in human peripheral mononuclear blood cells” (Scientific Reports, 2017):
Read-outs that look alike come from different tables or passages of the source.

How the values were obtained:
[1] = tested on: Rab10-pThr73; assay: Western Blot, HEK293 cells co-expressing HA-Rab10 and LRRK2 variants; assay type: cell-based, human; settings: 100 nM; HEK293 co-overexpressing HA-Rab10 and LRRK2 WT, G2019S or R1441C
Description: (§1) Plasmids encoding various LRRK2 and Rab GTPase protein variants were transiently expressed in HEK293 cells using Lipofectamine®2000 according to the manufacturer’s instructions (Thermo Fisher Scientific, US).
HEK293 cells were plated at a density of 1 × 10^6 cells/well in 6-well plates pre-coated for 1 hr at 37 °C with poly-L-lysin. Subsequent to the transient transfection HEK293 cells were harvested using 1 mL cold Phosphate Buffered Saline (PBS) buffer (Invitrogen, California, US) and subsequently centrifuged at 800 g for 2 minutes. Cell pellets were resuspended and solubilized in 100 µL lysis buffer (50 mM Tris hydrochloride, 1 mM magnesium chloride, 1% Triton, 0.1% sodium dodecyl sulfate (SDS), pH 8.0) on ice for 20 minutes and then centrifuged at 20,000 g for 30 minutes at 4 °C. The solubilized crude cell lysate was size mobility separated by SDS-polyacrylamide gel electrophoresis (SDS-PAGE). LRRK2 was separated on a 3–8% Tris-Acetate gel (NuPAGE® Tris-Acetate Mini Gels, Life Technologies, Paisley, UK) and Rab10 and Rab12 were separated using a NuPAGE® Novex 4–12% Bis-Tris Gel (Invitrogen, California, US). An amount of 10 µg total protein was loaded in each well. Proteins were transferred to immobilon-FL PVDF membranes (Millipore, Billerica, US).

[2] = molecular target: T1, LRRK2 G2019S (Homo sapiens, UniProt Q5S007, G2019S); assay: Odyssey CLx 96-well ICW assay, LRRK2-Ser935 phosphorylation in transfected HEK293 cells; assay type: cell-based; settings: transiently transfected HEK293 cells, overactive variant G2019S, 1 h, mean, n = 3
T1 construct: expressed in transfected cells; host or cells: HEK293
T1 sequence (Q5S007 whole entry G2019S): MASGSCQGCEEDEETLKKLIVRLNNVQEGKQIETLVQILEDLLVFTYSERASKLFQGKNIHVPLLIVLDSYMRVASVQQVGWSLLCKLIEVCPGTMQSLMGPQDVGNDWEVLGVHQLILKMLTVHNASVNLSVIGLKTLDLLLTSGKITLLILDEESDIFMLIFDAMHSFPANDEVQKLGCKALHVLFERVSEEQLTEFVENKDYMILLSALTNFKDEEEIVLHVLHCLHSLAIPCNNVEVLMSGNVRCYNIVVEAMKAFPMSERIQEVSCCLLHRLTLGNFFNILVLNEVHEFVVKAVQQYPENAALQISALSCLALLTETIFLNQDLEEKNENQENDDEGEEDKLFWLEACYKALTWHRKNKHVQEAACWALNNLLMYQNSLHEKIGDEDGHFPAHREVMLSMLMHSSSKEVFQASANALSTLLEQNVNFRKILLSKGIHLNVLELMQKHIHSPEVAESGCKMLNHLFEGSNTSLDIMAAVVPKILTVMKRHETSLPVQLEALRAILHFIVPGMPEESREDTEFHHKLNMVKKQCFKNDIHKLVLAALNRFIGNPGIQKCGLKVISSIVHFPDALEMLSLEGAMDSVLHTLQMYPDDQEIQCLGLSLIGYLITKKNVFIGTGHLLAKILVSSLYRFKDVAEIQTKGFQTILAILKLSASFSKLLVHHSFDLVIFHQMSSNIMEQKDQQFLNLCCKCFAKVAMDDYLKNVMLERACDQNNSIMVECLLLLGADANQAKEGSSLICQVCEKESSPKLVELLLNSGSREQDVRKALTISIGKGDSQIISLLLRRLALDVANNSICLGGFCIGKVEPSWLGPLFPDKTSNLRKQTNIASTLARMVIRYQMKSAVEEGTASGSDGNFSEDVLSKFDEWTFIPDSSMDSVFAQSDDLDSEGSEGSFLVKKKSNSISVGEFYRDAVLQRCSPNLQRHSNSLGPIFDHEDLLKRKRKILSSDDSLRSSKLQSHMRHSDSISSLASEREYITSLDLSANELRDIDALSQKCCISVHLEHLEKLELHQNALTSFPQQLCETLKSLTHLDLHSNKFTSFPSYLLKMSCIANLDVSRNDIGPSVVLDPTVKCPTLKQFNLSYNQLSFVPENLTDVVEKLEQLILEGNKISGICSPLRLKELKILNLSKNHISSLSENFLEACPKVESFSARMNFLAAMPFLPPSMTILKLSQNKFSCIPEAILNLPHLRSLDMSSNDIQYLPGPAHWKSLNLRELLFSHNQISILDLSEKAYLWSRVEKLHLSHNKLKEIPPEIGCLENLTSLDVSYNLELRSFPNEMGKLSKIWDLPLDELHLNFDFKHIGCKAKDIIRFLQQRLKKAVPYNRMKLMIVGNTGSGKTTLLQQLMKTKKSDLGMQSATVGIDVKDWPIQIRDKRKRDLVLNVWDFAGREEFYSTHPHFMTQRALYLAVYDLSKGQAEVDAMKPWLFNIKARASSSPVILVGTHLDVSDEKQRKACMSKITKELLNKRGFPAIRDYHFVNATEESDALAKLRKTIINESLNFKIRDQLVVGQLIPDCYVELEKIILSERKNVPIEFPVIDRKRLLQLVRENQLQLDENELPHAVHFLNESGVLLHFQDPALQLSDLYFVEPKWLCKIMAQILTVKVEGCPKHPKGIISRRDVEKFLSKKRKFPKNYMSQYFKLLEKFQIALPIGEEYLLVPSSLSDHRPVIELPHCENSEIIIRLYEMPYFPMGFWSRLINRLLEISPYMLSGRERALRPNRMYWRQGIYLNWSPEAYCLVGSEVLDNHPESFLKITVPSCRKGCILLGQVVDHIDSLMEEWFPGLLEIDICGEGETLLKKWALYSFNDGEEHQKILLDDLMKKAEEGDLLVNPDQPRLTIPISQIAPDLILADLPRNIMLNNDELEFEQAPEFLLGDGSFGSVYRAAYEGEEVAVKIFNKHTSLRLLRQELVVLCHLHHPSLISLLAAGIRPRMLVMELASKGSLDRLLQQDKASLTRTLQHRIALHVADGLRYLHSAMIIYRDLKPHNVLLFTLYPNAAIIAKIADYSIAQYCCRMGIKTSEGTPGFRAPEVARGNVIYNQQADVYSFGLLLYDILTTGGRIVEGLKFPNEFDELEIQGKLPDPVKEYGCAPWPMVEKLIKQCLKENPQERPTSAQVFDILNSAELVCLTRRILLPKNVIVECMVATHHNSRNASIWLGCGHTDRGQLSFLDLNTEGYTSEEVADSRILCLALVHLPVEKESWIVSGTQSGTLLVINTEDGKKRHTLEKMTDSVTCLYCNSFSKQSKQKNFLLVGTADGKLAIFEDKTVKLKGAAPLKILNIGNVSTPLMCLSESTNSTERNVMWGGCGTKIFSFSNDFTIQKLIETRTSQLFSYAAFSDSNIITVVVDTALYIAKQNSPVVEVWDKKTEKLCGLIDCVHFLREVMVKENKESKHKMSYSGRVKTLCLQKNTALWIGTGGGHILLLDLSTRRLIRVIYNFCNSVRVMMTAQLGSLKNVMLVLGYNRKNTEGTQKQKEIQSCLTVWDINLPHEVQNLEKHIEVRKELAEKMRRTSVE
Description: as §1
(§2) HEK293 cells grown in clear-bottom 96-well plates were transfected with either wild type LRRK2, kinase overactive variant G2019S, inhibition-resistant mutant A2016T or mock, respectively. […] Subsequently, the plates were processed as previously described.

[3] = molecular target: LRRK2 WT (Homo sapiens, UniProt Q5S007); assay: as above; assay type: cell-based; settings: transiently transfected HEK293 cells, 1 h, mean, n = 3
LRRK2 WT, sequence (Q5S007 whole entry): as the sequence (Q5S007 whole entry G2019S) above, with S2019G counted along it
Description: as §1, §2

[4] = molecular target: T2, LRRK2 A2016T (Homo sapiens, UniProt Q5S007, A2016T); assay: as above; assay type: cell-based; settings: transiently transfected HEK293 cells, inhibition resistant mutant A2016T, 1 h, mean, n = 3
T2 construct: expressed in transfected cells; host or cells: HEK293
T2 sequence (Q5S007 whole entry A2016T): as the sequence (Q5S007 whole entry G2019S) above, with A2016T, S2019G counted along it
Description: as §1, §2

[5] = molecular target: T3, LRRK2-pSer935 (Homo sapiens, UniProt Q5S007); assay: Acute inhibition, Western Blot, non-stimulated human PBMCs; assay type: cell-based
T3 construct: human primary cells expressing endogenous levels of LRRK2; endogenous in cells; host or cells: human PBMCs from healthy donors
T3 sequence (Q5S007 whole entry): as the sequence (Q5S007 whole entry G2019S) above, with S2019G counted along it
Description: (§3) HEK293 cells were plated at a density of 1 × 10^6 cells/well in 6-well plates pre-coated for 1 hr at 37 °C with poly-L-lysin. Subsequent to the transient transfection HEK293 cells were harvested using 1 mL cold Phosphate Buffered Saline (PBS) buffer (Invitrogen, California, US) and subsequently centrifuged at 800 g for 2 minutes. Cell pellets were resuspended and solubilized in 100 µL lysis buffer (50 mM Tris hydrochloride, 1 mM magnesium chloride, 1% Triton, 0.1% sodium dodecyl sulfate (SDS), pH 8.0) on ice for 20 minutes and then centrifuged at 20,000 g for 30 minutes at 4 °C. The solubilized crude cell lysate was size mobility separated by SDS-polyacrylamide gel electrophoresis (SDS-PAGE). LRRK2 was separated on a 3–8% Tris-Acetate gel (NuPAGE® Tris-Acetate Mini Gels, Life Technologies, Paisley, UK) and Rab10 and Rab12 were separated using a NuPAGE® Novex 4–12% Bis-Tris Gel (Invitrogen, California, US). An amount of 10 µg total protein was loaded in each well. Proteins were transferred to immobilon-FL PVDF membranes (Millipore, Billerica, US). Membranes were incubated with primary antibodies overnight at 4 °C: mouse monoclonal [N241A/34] anti-LRRK2 antibody (1:2,000; NeuroMab, California, US), rabbit monoclonal [UDD2 10(12)] anti-pS935-LRRK2 antibody (1:1,000; RabMAb®, Abcam, Cambridge, UK), mouse anti-HA monoclonal antibody [clone HA-7] (1:10,000; Santa Cruz Biotechnology, Texas, US), rabbit anti-Rab10-pThr73 polyclonal [#5981] (1:2,000; H. Lundbeck A/S, DK) and rabbit anti-Rab12-Ser106 polyclonal antibody [#5919] (1:5,000; H. Lundbeck A/S, DK). Subsequently, the membranes were washed and incubated with secondary antibodies for 1 hour at room temperature: Anti-rabbit IgG F(c) (GOAT) antibody IRDye® 800CW Conjugated (1:10,000; Rockland Immunochemicals Inc., Gilbertsville, US) and anti-mouse Alexa Fluor® 680 Goat anti-mouse IgM (1:20,000; Life Technologies, Paisley, UK). The proteins were visually detected by infrared imaging using Odyssey CLx (LI-COR, Nebraska, US). Membranes were scanned and band intensities were quantified using the Image Studio version 3.1.4 (LI-COR, Nebraska).
(§4) PBMCs were isolated using the density gradient medium, Lymphoprep™ from Stemcell Technologies (Vancouver, Canada) following their standard protocol. Briefly, 4 ml blood was diluted with 4 ml PBS and applied at the SepMate™ tubes (Stemcell Technologies) and spun at 1200xg for 20 min at RT in the centrifuge without brakes. The PBMC layer was collected and spun at 600xg for 8 min and washed two times in PBS by spinning at 600xg between each wash. After the last wash, the cells were counted and the cellular concentration was adjusted to 50 × 10^6 cells/ml in PBS. Donor samples were treated with the LRRK2 inhibitor PFE-360 for one hour and the cells were hereafter lysed by adding 1/10 volume lysis buffer (5% Triton-X, 5% Digitonin, 10 mM EDTA) containing phosphatase and protease inhibitor cocktail (Roche Diagnostics, Mannheim, Germany). The lysates from human PBMCs were subjected to SDS-PAGE and Western Blotting procedures as described above.

[6] = tested on: Rab10-pThr73; assay: as above; assay type: cell-based
Description: as §3, §4

[7] = tested on: CHED; settings: Lys2
[8] = 2 µM, 1hr, non-stimulated PBMCs, n = 6 donors
[9] = non-stimulated human PBMCs, 1 hour, n = 3

Row | Structure (SMILES) | phosphorylation of Rab10 (pThr73) [1] | IC50 [2] | IC50 [3] | IC50 [4] | LRRK2 inhibition ([5]; 2 µM, 1hr, non-stimulated PBMCs) | LRRK2-pSer935 levels vs PBS-treated PBMC samples [5, 8] | IC50 [5, 9] | pIC50 ± SEM, LRRK2-pSer935 [5, 9] | Rab10-pThr73 levels vs PBS-treated PBMC samples [6, 8] | IC50 [6, 9] | pIC50 ± SEM, Rab10-pThr73 [6, 9] | % Inhibition ([7]; 0.1µM) | % Inhibition ([7]; 1µM)
1 | Cc1cccc(-c2cc(Nc3ccn(C)n3)nc3[nH]cc(C#N)c23)c1 [Lu AF58786] | no phosphorylation | 19 nM | 12 nM | 93 nM |  |  |  |  |  |  |  |  | 
2 | Cn1cc(-c2c[nH]c3ncnc(N4CCOCC4)c23)cc1C#N [PFE-360] |  |  |  |  | full LRRK2 inhibition | significantly lower | 24 nM | 7.6 ± 0.3 (n = 3) | significantly lower | 12 nM | 7.9 ± 0.3 (n = 3) | 4.9% | -1.5%
